Measured values as given in US11919883B2, “Metalloenzyme inhibitor compounds” (Ji Xing Pharmaceuticals Hong Kong Limited, priority 2016, dated 2024).
Like-named read-outs stand apart in the source and are kept apart here.

Tests used:
[1] = Rat liver microsome stability; format: in vitro ADME; settings: for Rat LM Stability: % Compound remaining at 65 min in rat liver microsomes
[2] = molecular target: T1, recombinant human CYP11B1 (Homo sapiens, UniProt P15538); assay: CYP11B1 enzyme assay, enzyme enriched microsomes from V79-4 cells, cortisol by LC-MS; format: biochemical
T1 construct: made in house; host or cells: V79-4 cells (enzyme enriched microsomal fraction of cell lysates)
T1 sequence (P15538 25-503): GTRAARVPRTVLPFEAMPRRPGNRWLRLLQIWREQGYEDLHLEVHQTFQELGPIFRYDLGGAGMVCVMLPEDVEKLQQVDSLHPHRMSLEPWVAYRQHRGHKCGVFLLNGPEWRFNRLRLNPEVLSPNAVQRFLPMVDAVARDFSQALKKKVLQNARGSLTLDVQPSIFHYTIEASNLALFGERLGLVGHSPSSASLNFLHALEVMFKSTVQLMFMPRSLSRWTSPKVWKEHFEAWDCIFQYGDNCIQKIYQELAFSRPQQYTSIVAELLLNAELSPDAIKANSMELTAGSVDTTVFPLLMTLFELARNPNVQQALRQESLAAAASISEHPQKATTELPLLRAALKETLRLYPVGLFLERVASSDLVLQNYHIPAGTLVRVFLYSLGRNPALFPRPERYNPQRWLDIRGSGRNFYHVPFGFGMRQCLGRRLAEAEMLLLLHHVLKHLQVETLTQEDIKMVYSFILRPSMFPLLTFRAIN
Description: (§1) An enzyme enriched microsomal fraction was prepared from cellular lysates and subsequently used as the enzyme source for determining inhibitor IC50s. […] Enzyme assays for inhibitor screening employed CYP11B2 and CYP11B1 enzyme enriched microsomes and were run at the Km of the respective substrates. Products of the enzyme reactions, aldosterone for CYP11B2 or cortisol for CYP11B1, were measured by LC-MS. Assays were run under conditions of less than 20% substrate turnover. Inhibitor IC50s were generated by determining the product formation in the absence or presence of inhibitor at various concentrations. In the absence of the test compound, the product formed (Pt) in each data set was defined as 100% activity. In the absence of enzyme, the product formed (Pb) in each data set was defined as 0% activity. The percent activity in the presence of each inhibitor was calculated according to the following equation: % activity=(P−Pb)/(Pt−Pb), where P=the product formed in the presence of the inhibitor.

[3] = molecular target: T2, recombinant human CYP11B2 (Homo sapiens, UniProt P19099); assay: CYP11B2 enzyme assay, enzyme enriched microsomes from V79-4 cells, aldosterone by LC-MS; format: biochemical; settings: for Selectivity: CYP11B1 IC50/CYP11B2 IC50
T2 construct: made in house; host or cells: V79-4 cells (enzyme enriched microsomal fraction of cell lysates)
T2 sequence (P19099 25-503): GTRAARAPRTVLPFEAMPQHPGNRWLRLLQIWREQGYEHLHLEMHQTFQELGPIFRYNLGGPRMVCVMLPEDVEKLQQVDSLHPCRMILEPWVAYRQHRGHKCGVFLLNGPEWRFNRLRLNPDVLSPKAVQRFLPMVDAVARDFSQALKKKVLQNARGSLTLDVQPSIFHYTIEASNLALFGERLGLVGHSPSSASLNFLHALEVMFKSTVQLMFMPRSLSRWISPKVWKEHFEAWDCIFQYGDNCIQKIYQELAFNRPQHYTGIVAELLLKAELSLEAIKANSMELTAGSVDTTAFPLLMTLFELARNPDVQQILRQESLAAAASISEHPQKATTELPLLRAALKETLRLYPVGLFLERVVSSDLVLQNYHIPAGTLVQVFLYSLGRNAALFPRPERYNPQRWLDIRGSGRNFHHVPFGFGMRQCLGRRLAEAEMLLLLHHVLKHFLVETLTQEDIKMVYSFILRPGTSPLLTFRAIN
Description: as §1

[4] = Cyno liver microsome stability; format: in vitro ADME, cynomolgus monkey; settings: for Cyno LM Stability: % Compound remaining at 65 min in cyno liver microsomes; for metabolic stability when exposed to cynomolgus monkey liver microsomes: compared with pyridine counterpart Example 76
[5] = Cyno half life after PO dose; design: species or system cynomolgus monkeys; settings: cynomolgus monkey; for half-life: in vivo, 1 mg/kg PO dose, read-out: Cyno T½ (converted)
[6] = IC50 ranges, run at Km of 11-deoxycortisol, read-out: hCYP11B1 IC50
[7] = Table 3 comparison, read-out: CYP11B1 IC50
[8] = IC50 ranges, run at Km of 11-deoxycorticosterone, read-out: hCYP11B2 IC50
[9] = Table 3 comparison, read-out: CYP11B2 IC50

Row | IC50 [2, 6] [nM] | IC50 [3, 8] [nM] | Compound | further results
1 | 1000 to 10000 | 1 to 100 | Fc1ccc2nc(-c3cncnc3)n(C3CC3)c2c1 [Example 1, 1-Cyclopropyl-6-fluoro-2-(pyrimidin-5-yl)-1H-benzo[d]imidazole] | Rat LM Stability [1]: 0%; IC50 [2, 7]: 5380 nM; Selectivity [3]: 134; IC50 [3, 9]: 40 nM; Cyno LM Stability [4]: 70%
2 | > 10000 | 1000 to 10000 | CC(=O)NCCc1ncncc1-c1nc2cc(F)c(F)cc2n1C1CC1 [Example 59, N-(2-(5-(1-Cyclopropyl-5,6-difluoro-1H-benzo[d]imidazol-2-yl)pyrimidin-4-yl)ethyl)acetamide] | –
3 | 1000 to 10000 | 1 to 100 | FC(F)(F)c1ncncc1-c1nc2ccc(Cl)nc2n1C1CC1 [Example 61, 5-Chloro-3-cyclopropyl-2-(4-(trifluoromethyl)pyrimidin-5-yl)-3H-imidazo[4,5-b]pyridine] | –
4 | 1000 to 10000 | 1 to 100 | N#Cc1ccc2nc(-c3cncnc3C(F)F)n(C3CC3)c2n1 [Example 63, 3-Cyclopropyl-2-(4-(difluoromethyl)pyrimidin-5-yl)-3H-imidazo[4,5-b]pyridine-5-carbonitrile] | –
5 | > 10000 | 100 to 1000 | CCn1c(-c2cncnc2C(F)(F)F)nc2cc(F)c(F)cc21 [Example 67, 1-Ethyl-5,6-difluoro-2-(4-(trifluoromethyl)pyrimidin-5-yl)-1H-benzo[d]imidazole] | –
6 | > 10000 | 100 to 1000 | CCn1c(-c2cncnc2C(F)(F)F)nc2ccc(Cl)nc21 [Example 68, 5-Chloro-3-ethyl-2-(4-(trifluoromethyl)pyrimidin-5-yl)-3H-imidazo[4,5-b]pyridine] | –
7 | > 10000 | > 10000 | O=C(O)c1ccc2nc(-c3cncnc3C(F)(F)F)n(C3CC3)c2c1 [Example 70, 1-Cyclopropyl-2-(4-(trifluoromethyl)pyrimidin-5-yl)-1H-benzo[d]imidazole-6-carboxylic acid] | –

The next lines start with the compound.

Row | Compound | IC50 [2, 6] [nM] | IC50 [3, 8] [nM] | further results
8 | Fc1cc2nc(-c3cncnc3C(F)F)n(C3CC3)c2cc1F [Example 27, 1-Cyclopropyl-2-(4-(difluoromethyl)pyrimidin-5-yl)-5,6-difluoro-1H-benzo[d]imidazole] | 1000 to 10000 | 1 to 100 | in vivo half-lives in cynomolgus monkeys [5]: long in vivo half-lives; half-life [5]: 16.9 h; IC50 [2, 7]: 4720 nM; IC50 [3, 9]: 17 nM; Cyno LM Stability [4]: 106%; metabolic stability when exposed to cynomolgus monkey liver microsomes [4]: much greater metabolic stability
9 | Fc1cc2nc(-c3cncnc3C(F)(F)F)n(C3CC3)c2cc1F [Example 30, 1-Cyclopropyl-5,6-difluoro-2-(4-(trifluoromethyl)pyrimidin-5-yl)-1H-benzo[d]imidazole] | 1000 to 10000 | 1 to 100 | Rat LM Stability [1]: 108%; metabolic stability when exposed to rat liver microsomes ([1]; compared with pyridine counterpart Example 76): much greater metabolic stability; in vivo half-lives in cynomolgus monkeys [5]: long in vivo half-lives; half-life [5]: 37.5 h; IC50 [2, 7]: 6370 nM; Selectivity [3]: 199; IC50 [3, 9]: 32 nM; Cyno LM Stability [4]: 99%; metabolic stability when exposed to cynomolgus monkey liver microsomes [4]: much greater metabolic stability
10 | Cc1ncncc1-c1nc2cc(F)c(F)cc2n1C1CC1 [Example 44, 1-Cyclopropyl-5,6-difluoro-2-(4-methylpyrimidin-5-yl)-1H-benzo[d]imidazole] | 1000 to 10000 | 1 to 100 | Rat LM Stability [1]: 96%; IC50 [2, 7]: 4160 nM; Selectivity [3]: 244; IC50 [3, 9]: 17 nM; Cyno LM Stability [4]: 72%
11 | N#Cc1ccc2nc(-c3cncnc3C(F)(F)F)n(C3CC3)c2c1 [Example 60, 1-Cyclopropyl-2-(4-(trifluoromethyl)pyrimidin-5-yl)-1H-benzo[d]imidazole-6-carbonitrile] | 1000 to 10000 | 1 to 100 | –
12 | FC(F)c1ncncc1-c1nc2ccc(Cl)nc2n1C1CC1 [Example 62, 5-Chloro-3-cyclopropyl-2-(4-(difluoromethyl)pyrimidin-5-yl)-3H-imidazo[4,5-b]pyridine] | 1000 to 10000 | 100 to 1000 | –
13 | CC(F)(F)c1ncncc1-c1nc2ccc(C#N)cc2n1C1CC1 [Example 64, 1-Cyclopropyl-2-(4-(1,1-difluoroethyl)pyrimidin-5-yl)-1H-benzo[d]imidazole-6-carbonitrile] | 1000 to 10000 | 1 to 100 | –
14 | N#Cc1ccc2nc(-c3cncnc3C(F)(F)F)n(C3CC3)c2n1 [Example 65, 3-Cyclopropyl-2-(4-(trifluoromethyl)pyrimidin-5-yl)-3H-imidazo[4,5-b]pyridine-5-carbonitrile] | 1000 to 10000 | 1 to 100 | –
15 | FC(F)(F)c1ncncc1-c1nc2cc(Cl)cnc2n1C1CC1 [Example 66, 6-Chloro-3-cyclopropyl-2-(4-(trifluoromethyl)pyrimidin-5-yl)-3H-imidazo[4,5-b]pyridine] | > 10000 | 1000 to 10000 | –
16 | CCn1c(-c2cncnc2C(F)(F)F)nc2ccc(C#N)nc21 [Example 69, 3-ethyl-2-(4-(trifluoromethyl)pyrimidin-5-yl)-3H-imidazo[4,5-b]pyridine-5-carbonitrile] | > 10000 | 100 to 1000 | –
17 | CC(F)(F)c1ncncc1-c1nc2cc(F)c(F)cc2n1C1CC1 [Example 71, 1-Cyclopropyl-2-(4-(1,1-difluoroethyl)pyrimidin-5-yl)-5,6-difluoro-1H-benzo[d]imidazole] | 1000 to 10000 | 1 to 100 | –
18 | Fc1cc2nc(-c3cncnc3C3CC3)n(C3CC3)c2cc1F [Example 72, 1-Cyclopropyl-2-(4-cyclopropylpyrimidin-5-yl)-5,6-difluoro-1H-benzo[d]imidazole] | > 10000 | 100 to 1000 | –
19 | CC(C)(O)c1ncncc1-c1nc2ccc(C#N)cc2n1C1CC1 [Example 73, 1-Cyclopropyl-2-(4-(2-hydroxypropan-2-yl)pyrimidin-5-yl)-1H-benzo[d]imidazole-6-carbonitrile] | > 10000 | 100 to 1000 | –
